Source: patent publication US8058451B2, “Hydroxycucurbituril derivatives, their preparation methods and uses” (Postech Foundation, priority 2002, dated 2011)
Each block holds one substance with its values, some of them ahead of it.

Key:
[1] = Ion selective electrode responses to ammonium, potassium, sodium, choline and acetylcholine ions
Experimental: 1% by weight of allyoxycucurbit[6]uril prepared in Synthesis Example 8, 33% by weight of polyvinylchloride and 66% by weight of 2-nitrophenyloctylether were dissolved in THF to form a membrane. With this membrane, an ion selective electrode was fabricated. Then, the responses of the electrode with respect to ammonium ion, potassium ion, sodium ion, choline ion and acetylcholine ion were measured in a 0.01M Tris-buffered solution. As a result, the selectivity of choline with respect to acetylcholine was −1.84, ammonium ion −1.31, potassium ion −0.90 and sodium ion −1.16, respectively. The allyloxycurcubit[6]uril according to the present invention can be advantageously used in clinical analysis by selective detection of a neurotransmitter in vivo, e.g., acetylcholine, instead of choline which is a major obstacle in analyzing acetylcholine. The ion selective electrode using allyoxycucurbit[6]uril can be used in measuring acetylcholine in a concentration range of 2.1×10^−6 M.

[2] = Binding of ammonium ions in organic solvent (CD3CN); settings: 5.5 mg host, 6.7 mg (NH4)+(BPh4)-, 0.5 mL CD3CN
Experimental: To investigate whether ammonium ions present in an organic solvent can bind with CB[5]^OH, the following example was carried out.
5.5 mg of CB[5]^OH prepared in Synthesis Example 2 and 6.7 mg of (NH4)^+(BPh4)^− were dissolved in 0.5 mL CD3CN. Then, ammonium ions in (NH4)^+(BPh4)^− could bind with CB[5]^OH in an acetonitrile solution.

[3] = Binding constant measurement by microcalorimeter (VP-ITC) with KCl solution; settings: 0.05 M Tris-buffered solution pH 7.2; 5.5 mM host, 110 mM KCl
Experimental: Since the hydroxycucurbituril derivatives obtained in Synthesis Example 1 have Lewis base atoms near the cavities of the molecule, they can effectively form a complex with metal ions or positively charged organic compounds. With these features, in order to investigate whether the hydroxycucurbituril derivatives having this property can be applied in manufacturing sensors for sensing metal ions or ammonium ions, the following example was carried out.
A 0.05 M Tris-buffered solution of pH 7.2 was prepared, and then a 5.5 mM hydroxycucurbit[5]uril (CB[5]^OH) solution prepared in Synthesis Example 2 and 110 mM of a KCl solution were prepared. Then, the binding constants of the cucurbit[5]uril derivative was measured using a microcalorimeter (VP-ITC, manufactured by MicroCal).

[4] = Ion selective electrode, potential differences on adding lead ions; settings: 1 mM Mg(OAc)2-HCl buffered solution pH 4; lead ions 10^-6 M to 10^-3 M
Experimental: A solution obtained by dissolving 1% by weight of CB[5]^OH prepared in Synthesis Example 2 in 0.1 mL of methanol, 33% by weight of polyvinylchloride used as a polymer support, 65.6% by weight of 2-nitrophenyloctylether used as a plasticizer and 0.4 mL of tetrahydrofuran dissolved in 0.4% by weight of potassium tetrakis(4-chlorophenyl)borate, were homogenously mixed, followed by slowly removing the solvent, to form an ion selective membrane. An ion selective electrode was fabricated with this ion selective membrane. An electrode with a silver wire coated with silver chloride in a 0.05 M aqueous KCl solution was used as a reference electrode.
The reference electrode and the ion selective electrode were immersed in 250 mL of 1 mM Mg(OAc)2—HCl buffered solution (pH=4), followed by continuously stirring for at least 1 hour until a membrane boundary potential was stabilized. Thereafter, potential differences were measured with adding lead ions to increase the concentration by 10 fold in the range of 10^−6 M to 10^−3 M using a micropipet at an interval of 100 seconds

[5] = Host-guest complex formation with acetylcholine chloride in D2O; assay type: binding; settings: 6.6 mg host, 2.0 mg acetylcholine chloride, 0.5 mL D2O
Experimental: To investigate whether the hydroxycucurbituril derivatives prepared in Synthesis Example 1 can effectively transport physiologically active materials or drugs, the following example was carried out using acetylcholine chloride as a neurotransmitter.

[6] = Host-guest complex formation with cyclopentane in D2O; assay type: binding; settings: 6.6 mg host, 10 μL cyclopentane, 0.5 mL D2O
Experimental: 6.6 mg of hydroxycucurbit[6]uril (CB[6]^OH) prepared in Synthesis Example 1 and 10 μL of cyclopentane were dissolved in 0.5 mL of D2O.

[7] = Host-guest complex formation with p-toluidine in D2O; assay type: binding; settings: 6.6 mg host, 1.2 mg p-toluidine, 0.5 mL D2O
Experimental: 6.6 mg of hydroxycucurbit[6]uril (CB[6]^OH) prepared in Synthesis Example 1 and 1.2 mg of p-toluidine were dissolved in 0.5 mL of D2O.

[8] = Host-guest complex formation with 1,4-phenylindiamine in D2O; assay type: binding; settings: 6.6 mg host, 1.2 mg 1,4-phenylindiamine, 0.5 mL D2O
Experimental: 6.6 mg of hydroxycucurbit[6]uril (CB[6]^OH) prepared in Synthesis Example 1 and 1.2 mg of 1,4-phenylindiamine were dissolved in 0.5 mL of D2O.

[9] = Host-guest complex formation with isobutene gas in D2O; assay type: binding; settings: 6.6 mg host in 0.5 mL D2O, isobutene gas injected
[10] = Host-guest complex formation with p-toluidine hydrochloride in D2O; assay type: binding; settings: 6.6 mg host, 1.5 mg p-toluidine hydrochloride, 0.5 mL D2O
Experimental: 6.6 mg of hydroxycucurbit[6]uril (CB[6]^OH) prepared in Synthesis Example 1 and 1.5 mg of p-toluidine hydrochloride were dissolved in 0.5 mL of D2O.

[11] = Host-guest complex formation with tetrahydrofuran in D2O; assay type: binding; settings: 6.6 mg host, 10 μL tetrahydrofuran, 0.5 mL D2O
Experimental: 6.6 mg of hydroxycucurbit[6]uril (CB[6]^OH) prepared in Synthesis Example 1 and 10 μL of tetrahydrofuran were dissolved in 0.5 mL of D2O.

Substance: Allyloxycucurbit[6]uril [allyoxycucurbit[6]uril]
concentration range in which acetylcholine can be measured [1]: 2.1 µM

binding of ammonium ions of (NH4)+(BPh4)- in acetonitrile solution [2]: could bind
Substance: hydroxycucurbit[5]uril [CB[5]^OH]
binding with alkali metal ions and ammonium ions (microcalorimeter) [3]: could selectively bind with alkali metal ions, as well as with ammonium ions
ion selective electrode detection of heavy metal ions (lead) [4]: could be used in detecting harmful heavy metal ions remaining in water

Substance: hydroxycucurbit[6]uril [CB[6]^OH]
host-guest complex formation with acetylcholine chloride [5]: forming a 1:1 host-guest complex
host-guest complex formation with cyclopentane [6]: Quantitative formation of a 1:1 host-guest complex
host-guest complex formation with p-toluidine [7]: Quantitative formation of a 1:1 host-guest complex
host-guest complex formation with 1,4-phenylindiamine [8]: Quantitative formation of a 1:1 host-guest complex
host-guest complex formation with isobutene gas [9]: forming a 1:1 host-guest complex
host-guest complex formation with p-toluidine hydrochloride [10]: Quantitative formation of a 1:1 host-guest complex
host-guest complex formation with tetrahydrofuran [11]: Quantitative formation of a 1:1 host-guest complex
